Laboratory results as given in publication PMC2744931, “Glutamate Uptake Triggers Transporter-Mediated GABA Release from Astrocytes” (PLoS ONE, 2009).
Like-named read-outs stand apart in the source and are kept apart here.

Tests used:
[1] = system: acute rat hippocampal slices; test: [3H]GABA efflux from acute rat hippocampal slices (microvolume superfusion); type: cell-based; conditions: for effect on Glu-induced GABA release in hippocampal slices: DL-AP5 50 µM, CNQX 10 µM, (S)-MCPG 500 µM applied as Glu receptor antagonists
Description: Radiolabeling of 400 µm thick acute slices was conducted in 200 µl of ACSF in a glass tube. […] To preferentially label the cytosolic over the vesicular pools, incubation of slices at 30°C lasted for 10 min [54]. Slices were washed with fresh ACSF containing GABA-T inhibitors, thereafter placed in a custom-built closed micro-volume (50 µl) chamber secured in a water bath thermostated at 30°C [55]. […] The superfusate was collected in 0.5 ml fractions. After washing for 10 min, 10 fractions were collected to define the basal release of radioactivity (‘pre-stimulus’). At this point, the hippocampal slice was exposed to 100 µM Glu for a period of 10 min (‘drug application’), followed by further 10 min of washing with ACSF (‘washout’). Radioactivity of each 0.5 ml fraction counted in 3 ml HiSafe 3 scintillation mixture was expressed as the percentage of the actual radioactivity content of the slice (fractional release). Fractional release data from individual slices were normalized to a first order exponential curve (obtained by fitting the pre-stimulus and the last 3 washout values). Normalized percent efflux data from fractions of ‘pre-stimulus’ (1–10 min) versus ‘drug application’ (11–20 min) periods were averaged and compared by statistical analysis.

[2] = system: GABA transport in rat cerebrocortical NPMV (GAT-2/3); test: [3H]GABA uptake in rat cerebrocortical native plasma membrane vesicles (NPMV) in the presence of 100 µM NNC-711; type: biochemical; conditions: for modulation of the effect of Glu on GABA transport / cytosolic GABA level in rat cortical NPMV: 100 µM NNC-711 present; for effect on GABA transport in rat cortical NPMV: 10 min preincubation, 100 µM NNC-711 (Figure 1B)
Description: Cerebral cortices of 4–6 weeks old male Wistar rats (Toxicoop, Hungary) and frozen human brain tissue samples (Hungarian Brain Tissue Bank, Budapest) were used to prepare NPMV fractions, that contain numerous membrane vesicles of different sizes and shapes, a few intact synaptosomes and free mitochondria. […] Afterward, preincubated solution was incubated with [^3H]GABA (10 nM, Amersham) and GABA (90 nM, Sigma) for 1 min. In case of [^3H]β-alanine uptake, incubation solution contained 100 nM [^3H]β-alanine (Amersham) and 900 nM β-alanine (Sigma). After the incubation, samples were immediately filtered through glass fiber filters and washed twice with ice-cold HEPES buffer. The [^3H]GABA level inside the plasma membrane vesicles was determined by liquid scintillation method. Although this method is generally used to measure GABA uptake, we applied it to follow GABA release due to the simplicity and reliability of the assay. We also determined GABA release by preloading [^3H]GABA into NPMV vesicles and measuring the [^3H]GABA level in the intracellular and extracellular milieu. […] Non-specific uptake was determined in the presence of 1 mM guvacine. The radioactivity of samples was counted in HiSafe 3 (Perkin Elmer) scintillation mixture.

hippocampus = conditions: cited from earlier work
GAT-1 = system: GAT-1; set-up: method as in Borden,L.A. (1996) Neurochem Int. 4: 335–356; conditions: ref Borden,L.A. (1996) Neurochem Int. 4: 335–356; cited from earlier work
BGT = system: BGT; set-up: method as in Borden,L.A. (1996) Neurochem Int. 4: 335–356; conditions: ref Borden,L.A. (1996) Neurochem Int. 4: 335–356; cited from earlier work
GAT-2 = system: GAT-2; set-up: method as in Borden,L.A. (1996) Neurochem Int. 4: 335–356; conditions: ref Borden,L.A. (1996) Neurochem Int. 4: 335–356; cited from earlier work
GAT-3 = system: GAT-3; set-up: method as in Borden,L.A. (1996) Neurochem Int. 4: 335–356; conditions: ref Borden,L.A. (1996) Neurochem Int. 4: 335–356; cited from earlier work
rat hippocampus = test: In vivo microdialysis and HPLC amino acid detection in the hippocampus
Description: Male Wistar rats (300–400 g) were anaesthetized with halothane (1% in air) and microdialysis probes were implanted into the ventral hippocampus (A: −5.0, L: 5.0, V: −8.0) as described previously. To minimize tissue damage, the final position of the probes was reached slowly, in not less than 20 min. Perfusion of artificial cerebrospinal fluid, containing 144 mM NaCl, 3 mM KCl, 1 mM MgCl2, 2 mM CaCl2 (pH 7.4), was performed at a rate of 1 µl/min. The dialysate samples during 20 min were stored at −20°C. To establish the background amino acid concentration, each experiment started with the collection of three control samples with <10% variation. NNC-711 was applied bilaterally for 60 min followed by the simultaneous application of t-PDC and NNC-711 for 60 min. Concentration of amino acids was measured by pre-column derivatization of primary amino acids with orthophthalaldehyde (OPA, Sigma). Derivatization was performed at pH 10.4 in the presence of mercaptoethanol. OPA-derivatized amino acids were detected with fluorescence detector excitation wavelength 340 nm and emission wavelength 440 nm. Because of the instability of OPA derivatives, the HPLC technique was automated on an HP 1100 series system. Amino acids were separated on HP Hypersyl ODS reversed-phase columns (200×2.1 mm) filled with 5 µm C-18 spherical packing material. Eluent A was 0.1 M phosphate buffer containing 0.5% (vol/vol) tetrahydrofuran (Merck), pH 5.6, while eluent B contained 70% acetonitrile (Merck) in eluent A, pH 5.6. The gradient profile was: 12% B at 0 min, 23% B at 9 min, 36% B at 18 min, 100% B at 20 min, 100% B at 25 min and 12% B at 30 min. The column equilibration time was 8 min. External standards of 10 µM amino acids were injected after every 20 samples. Chromatograms were evaluated with HP Chem-Station software. Concentration of GABA measured in dialysate samples collected during drug applications were related to averaged GABA concentration of control samples collected for an hour prior to drug application and were given as percent changes.

[3] = system: acute rat hippocampal slices; test: [3H]GABA efflux from acute rat hippocampal slices (microvolume superfusion); type: cell-based; conditions: for alteration of [GABA]o during blockade of GAT-2/3: no exogenous Glu, n = 5
[4] = GABA transport in the presence of 100 µM NNC-711, present study, read-out: IC50 Rat cerebrocortical NPMV
[5] = rat cortical NPMV, in the presence of NNC-711, read-out: IC50, effect on GABA transport
[6] = 100 µM SNAP-5114, nominally Mg2+-free ACSF

Question: Which “effect on Glu-induced GABA release in hippocampal slices” value (“effect on Glu-induced GABA release” for short) [1] does the source give for “6-cyano-7-nitroquinoxaline-2,3-dione [CNQX]” here?
Answer: partially inhibited

Question: Which “effect on Glu-induced GABA release” value [1] does the source give for `NC(CCCP(=O)(O)O)C(=O)O` (racemic) [DL-AP5, DL-2-amino-5-phosphonopentanoic acid] here?
Answer: partially inhibited

Question: Which results are given for `N[C@H](C(=O)O)[C@H](OCc1ccccc1)C(=O)O` (racemic) [TBOA, DL-threo-β-benzyloxyaspartic acid]?
Answer: modulation of the effect of Glu on GABA transport / cytosolic GABA level in rat cortical NPMV [2]: further reduced; elevation of [GABA]o ([3H]GABA efflux) ([1]; Glu-induced release in the presence of 100 µM TBOA, n = 4): 123±10 % of pre-stimulus control; elevation of [GABA]o ([3H]GABA efflux) ([1]; Glu-induced release in the presence of 1000 µM TBOA, n = 4): 109±1 % of pre-stimulus control; neuronal damage after in vivo administration in the hippocampus (hippocampus): induce neuronal damage in the CA1 and the dentate gyrus

Question: With `C[N+]1(C)CCc2cc3c(cc2[C@H]1[C@@H]1OC(=O)c2c1ccc1c2OCO1)OCO3.[I-]` [(1S,9R)-bicuculline methiodide] as the compound, how does the “modulation of the effect of Glu on GABA transport / cytosolic GABA level in rat cortical NPMV” value [2] read?
Answer: did not modulate the effect of Glu on the cytosolic GABA level

Question: Which “modulation of the effect of Glu on GABA transport / cytosolic GABA level in rat cortical NPMV” value [2] does the source give for `NC[C@H](CC(=O)O)c1ccc(Cl)cc1` [(R)-baclofen] here?
Answer: did not modulate the effect of Glu on the cytosolic GABA level

Question: For `C[C@@](N)(C(=O)O)c1ccc(C(=O)O)cc1` [(S)-MCPG, (S)-α-methyl-4-carboxyphenylglycine], which “effect on Glu-induced GABA release” value [1] is on record?
Answer: partially inhibited

Question: For `C[N+](C)(C)CC(=O)O` [Betaine], which IC50 [2, 4] is on record?
Answer: > 1000 µM

Question: And the IC50 (GAT-1)?
Answer: > 1000 µM

Question: And the IC50 (BGT)?
Answer: 173 µM

Question: What about the IC50 (GAT-2) of the same compound?
Answer: > 1000 µM

Question: What about the IC50 (GAT-3) of the same compound?
Answer: > 1000 µM

Question: With `[Cd+2]` [Cd^2+] as the compound, how does the “elevation of [GABA]o ([3H]GABA efflux)” value ([1]; Glu-induced release in the presence of 50 µM Cd2+ salt in the superfusion, n = 3) read?
Answer: 143±10 % of pre-stimulus control

Question: With `N[C@H](CC(=O)O)C(=O)O` [D-Asp] as the compound, how does the “effect on GABA transport in rat cortical NPMV” value (shortened to “effect on GABA transport”) [2] read?
Answer: able to affect GABA transport

Question: For `N[C@H](CCC(=O)O)C(=O)O` [D-Glu], which “effect on GABA transport” value [2] is on record?
Answer: able to affect GABA transport

Question: For `CC(C)C[C@@H](N)C(=O)O` [D-Leu], which IC50 [2, 5] is on record?
Answer: > 1000 µM

Question: Which IC50 [2, 5] does the source give for `N[C@H](CO)C(=O)O` [D-Ser] here?
Answer: > 1000 µM

Question: Which “modulation of the effect of Glu on GABA transport / cytosolic GABA level in rat cortical NPMV” value [2] does the source give for `CC(C)[C@H]1CN[C@H](C(=O)O)[C@H]1CC(=O)O` [DHK, dihydrokainic acid] here?
Answer: significantly reduced

Question: Which results are given for `NCCS(=O)O` [Hypotaurine]?
Answer: IC50 [2, 4]: 20 ± 0.4 µM; IC50 (GAT-1): 1010 µM; IC50 (BGT): 536 µM; IC50 (GAT-2): 52 µM; IC50 (GAT-3): 73 µM

Question: With `N[C@@H](CC(=O)O)C(=O)O` [L-Asp] as the compound, how does the “effect on GABA transport” value [2] read?
Answer: able to affect GABA transport

Question: Which IC50 [2, 5] does the source give for `CC(C)C[C@H](N)C(=O)O` [L-Leu] here?
Answer: > 1000 µM

Question: For `N[C@@H](CO)C(=O)O` [L-Ser], which IC50 [2, 5] is on record?
Answer: > 1000 µM

Question: For `O=C(O)C1=CCCN(CCON=C(c2ccccc2)c2ccccc2)C1` [NNC-711, 1,2,5,6-tetrahydro-1-[2-[[(diphenylmethylene)amino]oxy]ethyl]-3-pyridinecarboxylic acid], which “reduction of the [3H]GABA uptake” value ([2]; 100 µM NNC-711, NPMV fractions, n = 51) is on record?
Answer: 86±3%

Question: And the “[Arginine]o in the rat hippocampus in vivo” value (rat hippocampus; control for non-specific release, n = 10)?
Answer: 100±25 % of control

Question: And the “[GABA]o in the rat hippocampus in vivo” value (rat hippocampus; microdialysis application, t-PDC applied together with NNC-711, n = 10)?
Answer: 160±18 % of control

Question: With `O=C(O)C1CCCNC1` (centres unmarked) [Nipecotic acid] as the compound, how does the IC50 [2, 4] read?
Answer: 28 ± 0.5 µM

Question: Which IC50 [2, 4] does the source give for `O=C(O)C1CCCN(CCC=C(c2ccccc2)c2ccccc2)C1` (centres unmarked) [SKF89976A] here?
Answer: 372 ± 9 µM

Question: And the IC50 (GAT-1)?
Answer: 0.64 µM

Question: What about the IC50 (BGT) of the same compound?
Answer: 7210 µM

Question: And the IC50 (GAT-2)?
Answer: 550 µM

Question: And the IC50 (GAT-3)?
Answer: 4390 µM

Question: For `COc1ccc(C(OCCN2CCC[C@H](C(=O)O)C2)(c2ccc(OC)cc2)c2ccc(OC)cc2)cc1` [SNAP-5114, 1-[2-[tris(4-methoxyphenyl)methoxy]ethyl]-(S)-3-piperidinecarboxylic acid], which “elevation of [GABA]o ([3H]GABA efflux)” value ([1]; Glu-induced release in the presence of SNAP-5114, n = 4) is on record?
Answer: 109±4 % of pre-stimulus control

Question: What about the “reduction of [3H]GABA release compared to the pre-application period” value [3, 6] of the same compound?
Answer: 10%

Question: And the “alteration of [GABA]o during blockade of GAT-2/3” value [3, 6]?
Answer: 90±4 % of pre-application control

Question: And the “alteration of [GABA]o during blockade of GAT-2/3” value ([3]; 100 µM SNAP-5114, normal ACSF)?
Answer: 100±6 % of pre-application control

Question: Which IC50 [2, 4] does the source give for `NCCS(=O)(=O)O` [Taurine] here?
Answer: 400 ± 7 µM

Question: What about the IC50 (GAT-1) of the same compound?
Answer: > 1000 µM

Question: What about the IC50 (BGT) of the same compound?
Answer: > 1000 µM

Question: And the IC50 (GAT-2)?
Answer: 1270 µM

Question: What about the IC50 (GAT-3) of the same compound?
Answer: 2860 µM

Question: For `N[C@@H](CS(=O)(=O)O)C(=O)O` [cysteic acid], which “effect on GABA transport” value [2] is on record?
Answer: able to affect GABA transport

Question: Which IC50 [2, 5] does the source give for `NCCc1ccc(O)c(O)c1` [dopamine] here?
Answer: > 1000 µM

Question: Which IC50 [2, 5] does the source give for `NCCc1c[nH]c2ccc(O)cc12` [serotonin] here?
Answer: > 1000 µM

Question: With `O=C(O)CCC(=O)O` [succinate] as the compound, how does the IC50 ([2]; read-out: IC50, effect on GABA transport) read?
Answer: > 1000 µM

Question: Which results are given for `NCCC(=O)O` [β-alanine]?
Answer: IC50 [2, 4]: 26 ± 4 µM; IC50 (GAT-1): 2920 µM; IC50 (BGT): 1100 µM; IC50 (GAT-2): 66 µM; IC50 (GAT-3): 110 µM

Question: With penicillin as the compound, how does the IC50 [2, 5] read?
Answer: > 1000 µM
